This is an account of results in publication PMC10682503, “Structural and functional basis of inositol hexaphosphate stimulation of NHEJ through stabilization of Ku-XLF interaction” (Nucleic Acids Research, 2023).

One test addresses Ku. Also noted: method as in PMID 18776215. Particulars: competition assays with 3H-IP6; cited from earlier work.
A further test concerns the target Ku-DNA interaction (Homo sapiens, UniProt P12956+P13010). Put plainly: Single-molecule colocalization (TIRF) of Ku-AF647 on 18 bp DNA. To be noted: IP6 10 μM. In kind it is binding. As for the experimental part: Single molecule labelling, and flow channel preparation for single-molecule colocalization experiment are described in Supplemental Information. A single-molecule experiment was performed on a Total Internal Reflection Fluorescence (TIRF) microscope equipped with an inverted oil immersion objective (×100, 1.49 NA lens) coupled to 532 nm (Ultra-Laser, MGL-FN-532) and 639 nm (Ultra-Laser, MGL-FN-639) excitation lasers to excite the sample at TIRF illumination. A dichroic beam splitter (Semrock, Di03-635-t1) was used to split green and red signals, which were passed through narrow bandpass filters (Semrock, FF01-582/64 and FF01-680/42). The signals were collected by an electron-multiplying charge-coupled device (EM-CCD) (Andor, iXon897). Fluorescence beads (Invitrogen, Life Technologies Corporation, Eugene, OR) were used to map corresponding signals in green and red channels.
The BSA in the flow channel was washed with T50 buffer. […] Movies of 1 000 frames (33 Hz) were recorded with the red laser and both lasers turned on for the first 900 frames and last 100 frames, respectively. Four independent experiments were performed where at least 20 movies were recorded for each experimental condition. […]
Fluorescent labelling of Ku. […] The labelled protein was determined to have 50 % labelling efficiency, spectrophotometrically. […]

In the next test the test system is c-NHEJ. Particulars: cited from earlier work.
Test [1] has as its target T1, Ku-2E (Ku70-K357E, Ku80-K481E) (Homo sapiens, UniProt P12956+P13010, K357E/K481E).
T1 construct: 10x His-tag with TEV site (same vector as KuFL) (N); made in house; host or cells: Sf21 insect cells
Briefly: nanoDSF thermal stability of Ku-2E. To be noted: Ku-2E with DNA. For orientation: Differential scanning fluorimetry follows unfolding on heating by fluorescence.

Test [2] addresses T2, Ku-4E (Ku70 H359E-H360E/Ku80 K413E H414E) (Homo sapiens, UniProt P12956+P13010, H359E/H360E/H414E/K413E).
T2 construct: 10x His-tag with TEV site (same vector as KuFL) (N); made in house; host or cells: Sf21 insect cells
Put plainly: nanoDSF thermal stability of Ku-4E. To be noted: Ku-4E with DNA.

The next test has as its target T3, KuFL-DNA interaction (Homo sapiens, UniProt P12956+P13010).
T3 construct: The full-length human Ku heterodimer subunits (Ku70 1–609, Ku80 1–732); 10x His-tag with TEV site (N); made in house; host or cells: Sf21 insect cells (baculovirus, MultiBac)
Put plainly: switchSENSE kinetics of KuFL interaction with 48bp DNA. To be noted: IP6 3 μM. Format: binding. As for the experimental part: switchSENSE: A DRX 2400 instrument and a multi-purpose 48bp chip were used for switchSENSE measurements (both Dynamic Biosensors GmbH; Planegg, Germany). The sample and running buffer was in 10 mM Tris HCl pH 7.4, 140 mM NaCl, 50 µM EDTA, 0.05 % Tween-20, 50µM EDTA. Kinetics experiments of Ku interaction with DNA in presence or absence of IP6 were performed on a DRX2 instrument. Complementary DNA to the strand immobilized on the chip was first hybridized on the measurement electrodes. The association and dissociation between Ku and DNA, with or without IP6 (3 µM) at Ku concentration (0-15-30-60-120-240 nM were measured in a flow rate of 200 µL/min. Kinetics experiments of Ku interaction with DNA and XLF with or without DNA were performed on a Helix instrument. The sample and running buffer was in 10 mM Tris HCl pH 7.4, 140 mM NaCl, 50 µM EDTA, 0.05 % Tween-20 with or without IP6 (20 µM). The flow rate of all conditions are at 500 µL/min.

Chain of Ku-DNA interaction (P12956 whole entry): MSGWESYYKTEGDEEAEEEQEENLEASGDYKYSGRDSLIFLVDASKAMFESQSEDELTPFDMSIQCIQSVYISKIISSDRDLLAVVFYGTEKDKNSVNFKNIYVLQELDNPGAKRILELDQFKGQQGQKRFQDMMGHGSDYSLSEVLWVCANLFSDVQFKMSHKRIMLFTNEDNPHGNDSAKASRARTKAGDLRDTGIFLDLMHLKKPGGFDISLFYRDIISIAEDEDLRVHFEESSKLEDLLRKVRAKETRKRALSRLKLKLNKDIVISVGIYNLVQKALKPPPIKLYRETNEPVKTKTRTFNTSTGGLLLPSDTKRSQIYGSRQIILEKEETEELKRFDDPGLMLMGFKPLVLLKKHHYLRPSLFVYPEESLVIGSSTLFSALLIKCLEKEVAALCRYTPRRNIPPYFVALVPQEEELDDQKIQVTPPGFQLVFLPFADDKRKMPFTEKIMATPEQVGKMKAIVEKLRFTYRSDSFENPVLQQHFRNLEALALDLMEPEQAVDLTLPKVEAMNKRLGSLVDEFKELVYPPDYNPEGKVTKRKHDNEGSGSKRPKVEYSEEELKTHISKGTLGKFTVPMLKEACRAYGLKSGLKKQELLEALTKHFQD
Chain of Ku-DNA interaction (P13010 whole entry): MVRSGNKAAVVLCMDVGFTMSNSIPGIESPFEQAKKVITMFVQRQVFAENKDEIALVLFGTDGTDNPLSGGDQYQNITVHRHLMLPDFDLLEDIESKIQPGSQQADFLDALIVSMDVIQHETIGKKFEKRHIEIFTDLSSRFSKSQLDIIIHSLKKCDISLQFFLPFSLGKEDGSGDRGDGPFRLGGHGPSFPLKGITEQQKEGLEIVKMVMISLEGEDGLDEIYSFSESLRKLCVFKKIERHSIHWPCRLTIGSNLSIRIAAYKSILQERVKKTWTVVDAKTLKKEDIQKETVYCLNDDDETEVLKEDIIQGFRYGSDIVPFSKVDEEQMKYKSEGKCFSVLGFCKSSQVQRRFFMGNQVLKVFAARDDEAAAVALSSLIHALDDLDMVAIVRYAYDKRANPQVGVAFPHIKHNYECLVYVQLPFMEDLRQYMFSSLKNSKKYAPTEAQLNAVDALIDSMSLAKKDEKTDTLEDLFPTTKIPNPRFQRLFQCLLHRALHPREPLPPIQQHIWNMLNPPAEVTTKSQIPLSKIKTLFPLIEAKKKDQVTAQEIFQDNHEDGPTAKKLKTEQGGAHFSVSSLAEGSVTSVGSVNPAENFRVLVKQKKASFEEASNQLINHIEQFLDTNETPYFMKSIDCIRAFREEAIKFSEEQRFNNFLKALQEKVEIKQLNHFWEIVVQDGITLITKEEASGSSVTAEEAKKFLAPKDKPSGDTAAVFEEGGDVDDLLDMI
T3 sequence (P12956 whole entry): as the sequence (P12956 whole entry) above
T3 sequence (P13010 whole entry): as the sequence (P13010 whole entry) above
T1 sequence (P12956 whole entry K357E): as the sequence (P12956 whole entry) above, with K357E counted along it
T1 sequence (P13010 whole entry K481E): as the sequence (P13010 whole entry) above, with K481E counted along it
T2 sequence (P12956 whole entry H359E/H360E): as the sequence (P12956 whole entry) above, with H359E, H360E counted along it
T2 sequence (P13010 whole entry K413E/H414E): as the sequence (P13010 whole entry) above, with K413E, H414E counted along it

For `O=P(O)(O)O[C@H]1[C@H](OP(=O)(O)O)[C@@H](OP(=O)(O)O)[C@H](OP(=O)(O)O)[C@@H](OP(=O)(O)O)[C@H]1OP(=O)(O)O` [IP6, inositol hexaphosphate], the Kd on Ku is 46 nM. In addition, on Ku-DNA interaction, the “kinetic dissociation constant (kOFF) of Ku from dsDNA” value is on record as “decreases” and the “residence times of Ku on DNA” value was “slightly increases”. Also, the “effect on end-joining of a linear plasmid substrate and DNA-PK dependent phosphorylation of XLF” value in the test on c-NHEJ (human cell extracts) is “stimulated”. Also, the “effect on c-NHEJ” value with c-NHEJ (human whole-cell extracts) is reported as “stimulate c-NHEJ”. In addition, in test [1], the “extra thermal stabilization by IP6” value is on record as “no extra stabilization”. Also, in test [2], the “further thermal stabilization by IP6” value was “not further stabilized”. The “effect on Ku-DNA interaction” value at KuFL-DNA interaction was “slight stimulation of the interaction”.

As usually defined, the Kd is the constant that tells how readily two partners part at equilibrium.
